Measured values published in US20230212523A1, “CULTURE MEDIUM FOR LARYNGEAL CANCER EPITHELIAL CELLS, CULTURE METHOD, AND APPLICATION THEREOF” (CAS (Hefei) Institute of Technology Innovation, priority 2020, published 2023).

B1: fibroblast growth factor 7: growth factor from Sino Biological (protein, UniProt P21781 32-194, looked up)
Fibroblast growth factor 7: CNDMTPEQMATNVNCSSPERHTRSYDYMEGGDIRVRRLFCRTQWYLRIDKRGKVKGTQEMKNNYNIMEIRTVAVGIVAIKGVESEFYLAMNKEGKLYAKKECNEDCNFKELILENHYNTYASAKWTHNGGEMFVALNQKGIPVRGKKTKKEQKTAHFLPMAIT

The molecules below were run on primary laryngeal cancer cells (No. 0S0064) (assay: Effects of different factors added to basic medium BM on proliferation of primary laryngeal cancer cells (cell count)). Settings: factor added to BM, in specific concentration ranges; 10 days of culture on irradiated NIH-3T3; FIGS. 1A-1F.
Assay type: cell-based, human
Method: The cultured NIH-3T3 cells (purchased from ATCC, and cultured in DMEM culture solution containing 10% fetal bovine serum) were digested with 0.25% trypsin (purchased from Thermo Fisher), and the digestion was terminated by using DMEM culture solution (purchased from Corning) containing 5%(v/v) fetal bovine serum (purchased from ExCell Biotech Co., Ltd.), 100 U/mL penicillin and 100 μg/mL streptomycin; the resultant was collected into a 15 mL centrifuge tube and centrifuged at 1500 rpm for 4 minutes, and then the supernatant was discarded. The centrifuged cell sediments were resuspended in the above DMEM culture solution containing 10% fetal bovine serum and were counted with a flow imaging counter (JIMBIO FIL, Jiangsu Jimbio Technology Co., Ltd.). The cells were irradiated with γ-ray of 35 Gy irradiation dose, and then were inoculated in a culture vessel at a density of 2×10^4 cells/cm^2. The cells were incubated in a 37° C. incubator until the cells adhere to the wall. Before the inoculation of primary cells, the culture medium was removed from the culture vessel.
Preparation of basic medium (abbreviated as BM): BM was prepared by adding 0.2 vol. % of Primocin (purchased from Invivogen, with a concentration of 50 mg/mL) to the commercial DMEM/F-12 medium to provide a final concentration of 100 μg/mL.
Next, different kinds and concentrations of additive factors (Table 3) were added to the basic medium (BM), so as to prepare culture mediums for laryngeal cancer epithelial cells containing different additive components.
The culture mediums with different components were added at a volume of 500 μl/well to 48-well plates which were pre-laid with γ-ray irradiated NIH-3T3 cells. Laryngeal cancer cells (No. 0S0064) isolated from laryngeal cancer tissue according to the same method as described in Example 1 were inoculated at a cell count of 4×10^4cells/well in the above-mentioned 48-well culture plates which were pre-laid with γ-ray irradiated NIH-3T3 cells. After surface disinfection, the plates were placed in a 37° C., 5% CO2 incubator (purchased from Thermo Fisher), such that equal numbers of freshly isolated laryngeal cancer cells (No. 0S0064) were cultured under different medium formulations. The culture mediums were replaced and the trophoblastic cells were supplemented every 4 days. after the start of culture. After 10 days of culture, cell counts were performed. The basic medium (BM) without addition of any additive was used as the experimental control.
As shown in the figures, adding different concentrations of different factors according to Table 3 to BM would result in different effects on cell proliferation.

Row | Molecule | effect on cell proliferation (ratio of cell number to that in basic medium BM)
1 | CN1C(=O)C(c2c(F)cccc2F)N(C)c2nc(Nc3ccc(S(N)(=O)=O)cc3)ncc21 (stereo not drawn) [Compound 1, 4-((7-(2,6-difluorophenyl)-5,8-dimethyl-6-oxo-5,6,7,8-tetrahydropteridin-2-yl)amino)benzsulfamide] | certain promoting effects on cell proliferation
2 | Cc1cccc(-c2nn(C(=S)Nc3ccccc3)cc2-c2ccnc3ccccc23)n1 [Compound A83-C1, A83-C1, reference compound] | certain promoting effects on cell proliferation
3 | C[C@@H](N)[C@H]1CC[C@H](C(=O)Nc2ccncc2)CC1 [Compound Y27632, Y27632, reference compound] | certain promoting effects on cell proliferation
4 | hepatocyte growth factor: growth factor from Sino Biological | certain promoting effects on cell proliferation
5 | insulin-like growth factor 1: growth factor from Sino Biological | certain promoting effects on cell proliferation
6 | B1 | certain promoting effects on cell proliferation
